Assay results as given in the supplement of paper PMC8671470.
± gives the standard deviation of the averaged measurements.

Columns and labels:
HL-60 [1] = test: cell viability (% survival relative to DMSO control); higher = less cytotoxic; settings: 72 h
How it was run: (§1)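 In 384-well plates, the full library was rescreened in duplicate on HL-60 cells in RPMI 1640 with 10% FBS, at 1–10,000 nM in five tenfold concentrations, for 72 h at 37 °C, 5% CO2. Each run also held DMSO or 100 nM of one of three metabolic inhibitors. Viability was measured by CellTiter-Glo and normalised to DMSO wells and to wells with proteasome inhibitor, present at 10 μM. Any area under the curve comes from four-parameter log-logistic fitting with drc and PharmacoGx.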

HL-60 [2] = test: area under dose-response curve (viability, 1 nM-10 uM) (fraction (0-1)); higher = more sensitive; settings: 72 h
How it was run: as §1

[3] = 0.001 µM, co-treatment: AZD3965 100 nM
[4] = 0.001 µM, co-treatment: DMSO vehicle
[5] = 0.001 µM, co-treatment: GSK2194069 100 nM
[6] = 0.001 µM, co-treatment: pictilisib 100 nM
[7] = 0.01 µM, co-treatment: AZD3965 100 nM
[8] = 0.01 µM, co-treatment: DMSO vehicle
[9] = 0.01 µM, co-treatment: GSK2194069 100 nM
[10] = 0.01 µM, co-treatment: pictilisib 100 nM
[11] = 0.1 µM, co-treatment: AZD3965 100 nM
[12] = 0.1 µM, co-treatment: DMSO vehicle
[13] = 0.1 µM, co-treatment: GSK2194069 100 nM
[14] = 0.1 µM, co-treatment: pictilisib 100 nM
[15] = 1 µM, co-treatment: AZD3965 100 nM
[16] = 1 µM, co-treatment: DMSO vehicle
[17] = 1 µM, co-treatment: GSK2194069 100 nM
[18] = 1 µM, co-treatment: pictilisib 100 nM
[19] = 10 µM, co-treatment: AZD3965 100 nM
[20] = 10 µM, co-treatment: DMSO vehicle
[21] = 10 µM, co-treatment: GSK2194069 100 nM
[22] = 10 µM, co-treatment: pictilisib 100 nM
[23] = co-treatment: GSK2194069 100 nM
[24] = co-treatment: pictilisib 100 nM

| SMILES | cell viability (HL-60 [1]; [3]) [%] | cell viability (HL-60 [1]; [4]) [%] | cell viability (HL-60 [1]; [5]) [%] | cell viability (HL-60 [1]; [6]) [%] | cell viability (HL-60 [1]; [7]) [%] | cell viability (HL-60 [1]; [8]) [%] | cell viability (HL-60 [1]; [9]) [%] | cell viability (HL-60 [1]; [10]) [%] | cell viability (HL-60 [1]; [11]) [%] | cell viability (HL-60 [1]; [12]) [%] | cell viability (HL-60 [1]; [13]) [%] | cell viability (HL-60 [1]; [14]) [%] | cell viability (HL-60 [1]; [15]) [%] | cell viability (HL-60 [1]; [16]) [%] | cell viability (HL-60 [1]; [17]) [%] | cell viability (HL-60 [1]; [18]) [%] | cell viability (HL-60 [1]; [19]) [%] | cell viability (HL-60 [1]; [20]) [%] | cell viability (HL-60 [1]; [21]) [%] | cell viability (HL-60 [1]; [22]) [%] | area under dose-response curve (HL-60 [2]; co-treatment: AZD3965 100 nM) | area under dose-response curve (HL-60 [2]; co-treatment: DMSO vehicle) | area under dose-response curve (HL-60 [2]; [23]) | area under dose-response curve (HL-60 [2]; [24]) |
| --- | --- | --- | --- | --- | --- | --- | --- | --- | --- | --- | --- | --- | --- | --- | --- | --- | --- | --- | --- | --- | --- | --- | --- | --- |
| CCCc1nc(C)c2c(=O)nc(-c3cc(S(=O)(=O)N4CCN(CC)CC4)ccc3OCC)[nH]n12 [Vardenafil] | 98.1 ± 1.4 | 98.07 ± 0.13 | 97.9 ± 1.4 | 101 ± 3.4 | 100 ± 4.8 | 99.7 ± 5 | 98.3 ± 5.9 | 104 ± 1.9 | 96.8 ± 7.3 | 84.9 ± 20 | 88.3 ± 16 | 93 ± 2.5 | 108 ± 5.8 | 98.5 ± 4.3 | 108.1 ± 0.52 | 104 ± 7.8 | 100 ± 2.6 | 103 ± 3.1 | 92.4 ± 10 | 107 ± 5.3 |  |  |  |  |
| Cc1ccc(-c2cc(C(F)(F)F)nn2-c2ccc(S(N)(=O)=O)cc2)cc1 [Celecoxib] | 104 ± 1.8 | 103 ± 1.3 | 101 ± 1.5 | 102 ± 3.9 | 99.7 ± 2.2 | 90.4 ± 19 | 87.7 ± 19 | 98.6 ± 12 | 101 ± 2.7 | 100 ± 3.8 | 97.67 ± 0.35 | 96.2 ± 5.6 | 106 ± 7.8 | 105 ± 8.1 | 103 ± 6.2 | 122 ± 8.5 | 114.8 ± 0.68 | 110.57 ± 0.073 | 104 ± 3 | 125 ± 10 | < 0.0301 | < 0.0301 | < 0.0301 | < 0.0301 |
| CCc1c(C(=O)C(N)=O)c2c(OCC(=O)O)cccc2n1Cc1ccccc1 [Varespladib] | 97.7 ± 5.8 | 101 ± 3.8 | 92.6 ± 6.1 | 103 ± 4.1 | 99.9 ± 7 | 95.7 ± 2.9 | 93.5 ± 2.6 | 99.9 ± 18 | 102 ± 5.3 | 103 ± 8.2 | 97 ± 3.3 | 107 ± 3.4 | 100.2 ± 0.46 | 97.5 ± 1.5 | 92.9 ± 2.3 | 97.7 ± 1.4 | 97 ± 6.2 | 98.1 ± 5.8 | 89.1 ± 4.8 | 97.2 ± 11 |  |  |  |  |
| COC(=O)c1cc2c(C(F)(F)F)cc(-c3ccccc3)cc2n1O [NHI-2] | 101 ± 16 | 102 ± 3.1 | 103 ± 4.8 | 96.9 ± 18 | 90.5 ± 6 | 100 ± 4 | 94.829 ± 0.083 | 92.8 ± 10 | 103 ± 8.9 | 104 ± 1.4 | 100 ± 3.5 | 103 ± 3.6 | 107 ± 4.8 | 102 ± 3.6 | 107.3 ± 0.8 | 99.3 ± 8.1 | 109 ± 7.1 | 111 ± 6 | 98.4 ± 0.75 | 97.3 ± 13 | < 0.0301 | < 0.0301 | < 0.0301 | < 0.0301 |
| CC(C)CC(=O)N[C@H](C(=O)N[C@H](C(=O)N[C@@H](CC(C)C)[C@@H](O)CC(=O)N[C@@H](C)C(=O)N[C@@H](CC(C)C)[C@@H](O)CC(=O)O)C(C)C)C(C)C [Pepstatin A] | 104 ± 3.4 | 98.3 ± 3.8 | 100 ± 2.5 | 99.8 ± 4.1 | 107 ± 7.4 | 101 ± 1.7 | 108 ± 1.3 | 117 ± 15 | 103 ± 6 | 98.4 ± 2 | 103 ± 7.9 | 98.8 ± 10 | 102 ± 7.8 | 98.35 ± 0.18 | 103 ± 5.4 | 89.9 ± 7 | 102 ± 5.5 | 99.6 ± 6 | 99.9 ± 6.4 | 107 ± 9.8 | < 0.0301 | < 0.0301 | < 0.0301 | < 0.0301 |
| N[C@@H](CC(=O)N1CCn2c(nnc2C(F)(F)F)C1)Cc1cc(F)c(F)cc1F [Sitagliptin] | 103 ± 1.8 | 97.61 ± 0.86 | 97.9 ± 1.7 | 82.9 ± 14 | 108 ± 6.3 | 102 ± 1.8 | 104 ± 5.4 | 104 ± 7.1 | 103 ± 1.1 | 100 ± 1.7 | 99.4 ± 5.9 | 99.5 ± 6.1 | 103 ± 1.9 | 101 ± 1.9 | 107 ± 4.7 | 114 ± 13 | 109 ± 19 | 101 ± 2 | 97.9 ± 3.2 | 94.2 ± 17 | < 0.0301 | < 0.0301 | < 0.0301 | < 0.0301 |
| Cc1cccc(Nc2cc(Cl)nc(SCC(=O)O)n2)c1C [Pirinixic acid] | 98.81 ± 0.56 | 97.46 ± 0.45 | 70.6 ± 36 | 96.5 ± 14 | 99 ± 2 | 94.5 ± 4.6 | 89.6 ± 7.2 | 80.8 ± 28 | 96.2 ± 2.9 | 96.3 ± 2.2 | 94.6 ± 6.5 | 91.1 ± 6 | 99.2 ± 2.7 | 100.4 ± 0.83 | 99.1 ± 5.2 | 102 ± 3.8 | 98.02 ± 0.94 | 96.4 ± 0.97 | 77.3 ± 27 | 96.7 ± 5.6 | < 0.0301 | < 0.0301 | < 0.0301 | < 0.0301 |
| N#C/C(=C\c1ccc(O)cc1)C(=O)O [alpha-cyano-4-hydroxycinnamic acid] | 99.4 ± 2.6 | 98.9 ± 6.6 | 101 ± 11 | 90.3 ± 2.3 | 101 ± 2 | 98.8 ± 2.9 | 103 ± 2.3 | 99.16 ± 0.25 | 102.35 ± 0.098 | 95.79 ± 0.61 | 98.6 ± 4.6 | 95.5 ± 3 | 101 ± 4.6 | 99.8 ± 2.5 | 97.5 ± 6.4 | 94.7 ± 5.4 | 101 ± 1.7 | 98.6 ± 2 | 95.5 ± 2 | 91.3 ± 5.2 | < 0.0301 | < 0.0301 | < 0.0301 | < 0.0301 |
| C=CC(=O)c1ccc(O)cc1 [4-Acryloylphenol] | 104 ± 2.3 | 102 ± 3.4 | 104 ± 3.1 | 108 ± 2.5 | 99.2 ± 1.7 | 101.3 ± 0.4 | 110 ± 15 | 103 ± 8.7 | 88.2 ± 19 | 100 ± 5.9 | 96.21 ± 0.15 | 104 ± 3.7 | 99.4 ± 1.9 | 102 ± 5.9 | 105 ± 9.7 | 108 ± 23 | 63.5 ± 5.5 | 92.8 ± 3.6 | 87.5 ± 4.1 | 58.5 ± 22 | < 0.0301 | < 0.0301 | < 0.0301 | < 0.0301 |
